Measurements: the NIST ThermoML archive (doi:10.1021/acs.jced.9b00068)
Numbers after ± are expanded uncertainties.

Assays:
[1] = Liquid; for mass density: 298.15 K, 101.33 kPa, Vibrating tube method; for vapor or sublimation pressure: Ebulliometric method (Recirculating still)
[2] = refractive index (Na D-line) (dimensionless); conditions: 298.15 K; 101.33 kPa; Liquid; Standard Abbe refractometry

Compound: CO [methanol]
- mass density [1]: 787.7 ± 0.2 kg/m3
- vapor or sublimation pressure ([1]; 337.5 K): 100.17 ± 2 kPa
- refractive index [2]: 1.3275 ± 0.0004

Compound: COC(=O)OC [dimethyl carbonate]
- mass density [1]: 1062.7 ± 0.2 kg/m3
- vapor or sublimation pressure ([1]; 362.5 K): 100.17 ± 2 kPa
- refractive index [2]: 1.3664 ± 0.0004

Compound: CCCCCOC(C)=O [pentyl ethanoate]
- mass density [1]: 872.3 ± 0.2 kg/m3
- vapor or sublimation pressure ([1]; 421.6 K): 100.17 ± 2 kPa
- refractive index [2]: 1.3999 ± 0.0004

Compound: COC(C)=O [methyl ethanoate]
- mass density [1]: 927.4 ± 0.2 kg/m3
- vapor or sublimation pressure ([1]; 330.2 K): 100.17 ± 2 kPa
- refractive index [2]: 1.3587 ± 0.0004

Compound: CCCOC(C)=O [propyl ethanoate]
- mass density [1]: 882.9 ± 0.2 kg/m3
- vapor or sublimation pressure ([1]; 373.8 K): 100.17 ± 2 kPa
- refractive index [2]: 1.3815 ± 0.0004

Compound: CCOC(=O)OCC [diethyl carbonate]
- mass density [1]: 969.4 ± 0.2 kg/m3
- vapor or sublimation pressure ([1]; 399.6 K): 100.17 ± 2 kPa
- refractive index [2]: 1.3821 ± 0.0004
